Reference: PubChem BioAssay AID248 (DTP/NCI, 2004)
Several values for one entry are separate records, joined by “and”; a condition that tells them apart may be missing. Equal entries are not always repeated. Toxic doses and inconclusive results are not listed. Cut-off read from the data, not from the text of the source: active = T/C of 150% or more; inactive = T/C below 125%.

Tested on: L1210 leukemia ip in BDF1 mice, survival T/C
Assay: NCI In Vivo Anticancer Drug Screen. Data for tumor model L1210 Leukemia (intraperitoneal) in B6D2F1 (BDF1) mice
Details: endpoint: mean survival time, higher = longer survival
Outline: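 Transplantable tumor model; survival measured in treated vs vehicle control mice. Value = treated/control.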

[1] = dose: 100.0 mg/kg/injection, schedule: Q01DX009 (ip), vehicle: Klucel (hydroxypropylcellulose) (HPC)
[2] = dose: 100.0 mg/kg/injection, schedule: Q04DX003 (ip), vehicle: Klucel (hydroxypropylcellulose) (HPC)
[3] = dose: 200.0 mg/kg/injection, schedule: Q01DX009 (ip), vehicle: Klucel (hydroxypropylcellulose) (HPC)
[4] = dose: 200.0 mg/kg/injection, schedule: Q04DX003 (ip), vehicle: Klucel (hydroxypropylcellulose) (HPC)
[5] = dose: 400.0 mg/kg/injection, schedule: Q04DX003 (ip), vehicle: Klucel (hydroxypropylcellulose) (HPC)
[6] = dose: 100.0 mg/kg/injection, schedule: Q01DX009 (ip), vehicle: saline
[7] = dose: 200.0 mg/kg/injection, schedule: Q01DX009 (ip), vehicle: saline
[8] = dose: 50.0 mg/kg/injection, schedule: Q01DX009 (ip), vehicle: saline with Tween-80
[9] = dose: 100.0 mg/kg/injection, schedule: Q01DX009 (ip), vehicle: saline with Tween-80
[10] = dose: 200.0 mg/kg/injection, schedule: Q01DX009 (ip), vehicle: saline with Tween-80
[11] = dose: 100.0 mg/kg/injection, schedule: Q04DX002 (ip), vehicle: Klucel (hydroxypropylcellulose) (HPC)
[12] = dose: 200.0 mg/kg/injection, schedule: Q04DX002 (ip), vehicle: Klucel (hydroxypropylcellulose) (HPC)
[13] = dose: 400.0 mg/kg/injection, schedule: Q04DX002 (ip), vehicle: Klucel (hydroxypropylcellulose) (HPC)
[14] = dose: 50.0 mg/kg/injection, schedule: Q01DX009 (ip), vehicle: Klucel (hydroxypropylcellulose) (HPC)
[15] = dose: 100.0 mg/kg/injection, schedule: Q04DX003 (ip), vehicle: saline
[16] = dose: 200.0 mg/kg/injection, schedule: Q04DX003 (ip), vehicle: saline
[17] = dose: 400.0 mg/kg/injection, schedule: Q01DX009 (ip), vehicle: saline
[18] = dose: 400.0 mg/kg/injection, schedule: Q04DX003 (ip), vehicle: saline
[19] = dose: 100.0 mg/kg/injection, schedule: Q01DX001 (ip), vehicle: saline
[20] = dose: 200.0 mg/kg/injection, schedule: Q01DX001 (ip), vehicle: saline
[21] = dose: 400.0 mg/kg/injection, schedule: Q01DX001 (ip), vehicle: saline
[22] = dose: 50.0 mg/kg/injection, schedule: Q04DX003 (ip), vehicle: saline with Tween-80
[23] = dose: 100.0 mg/kg/injection, schedule: Q04DX003 (ip), vehicle: saline with Tween-80
[24] = dose: 200.0 mg/kg/injection, schedule: Q04DX003 (ip), vehicle: saline with Tween-80

Measured: T/C

NC(=S)N/N=C/c1c[nH]c2ccccc12
inactive: [1] 95 % of control | [2] 87 % of control | [3] 97 % of control | [4] 96 % of control | [5] 94 % of control

COc1ccccc1NC(=O)C(N=Nc1ccc(S(=O)(=O)Nc2onc(C)c2C)cc1)C(C)=O (stereo unspecified)
inactive: dose: 75.0 mg/kg/injection, schedule: Q01DX001 (ip), vehicle: saline 92 % of control | dose: 150.0 mg/kg/injection, schedule: Q01DX001 (ip), vehicle: saline 94 % of control | dose: 300.0 mg/kg/injection, schedule: Q01DX001 (ip), vehicle: saline 87 % of control

COc1ccc(CCc2ccc(OC)cc2)cc1
inactive: dose: 25.0 mg/kg/injection, schedule: Q04DX002 (ip), vehicle: saline 106 % of control | dose: 50.0 mg/kg/injection, schedule: Q04DX002 (ip), vehicle: saline 117 % of control | dose: 100.0 mg/kg/injection, schedule: Q04DX002 (ip), vehicle: saline 109 % of control

C/C(=N/N(C)C)c1ccc([N+](=O)[O-])cc1
inactive: [6] 113 % of control | [7] 89 % of control

CC(C)(C)NSc1nc2ccccc2s1
inactive: [8] 97 % of control | [9] 94 % of control | [10] 98 % of control

O=C1NC(=S)S/C1=C/C=C/c1ccccc1
inactive: dose: 100.0 mg/kg/injection, schedule: Q04DX002 (ip), vehicle: saline with Tween-80 95 % of control | dose: 200.0 mg/kg/injection, schedule: Q04DX002 (ip), vehicle: saline with Tween-80 87 % of control | dose: 400.0 mg/kg/injection, schedule: Q04DX002 (ip), vehicle: saline with Tween-80 98 % of control

O=C(O)C1CCC2CCCCC2[N-]1.O=C(O)C1CCC2CCCCC2[N-]1.[Cu+2] (stereo unspecified)
inactive: dose: 6.25 mg/kg/injection, schedule: Q01DX009 (ip), vehicle: saline 97 % of control | dose: 6.25 mg/kg/injection, schedule: Q04DX003 (ip), vehicle: saline 105 % of control | dose: 12.5 mg/kg/injection, schedule: Q01DX009 (ip), vehicle: saline 90 % of control | dose: 12.5 mg/kg/injection, schedule: Q04DX003 (ip), vehicle: saline 100 % of control | dose: 25.0 mg/kg/injection, schedule: Q01DX009 (ip), vehicle: saline 97 % of control | dose: 25.0 mg/kg/injection, schedule: Q04DX003 (ip), vehicle: saline 94 % of control

OC1C(OCc2ccccc2)OC(COCc2ccccc2)C(OC2OC(COCc3ccccc3)C(OCc3ccccc3)C(OCc3ccccc3)C2OCc2ccccc2)C1OCc1ccccc1 (stereo unspecified)
inactive: dose: 200.0 mg/kg/injection, schedule: Q01DX009 (ip), vehicle: alcohol 94 % of control | dose: 400.0 mg/kg/injection, schedule: Q01DX009 (ip), vehicle: alcohol 86 % of control

S=C(Nc1ccc(Cl)cc1)Nc1ccc(-c2ccc(NC(=S)Nc3ccc(Cl)cc3)cc2)cc1
inactive: [11] 107 % of control | [12] 100 % of control | [13] 89 % of control

O=C(O)C1C2CCCCCCC21 (stereo unspecified)
inactive: [14] 108 % of control | dose: 100.0 mg/kg/injection, schedule: Q01DX005 (ip), vehicle: Klucel (hydroxypropylcellulose) (HPC) 95 % of control | [1] 108 % of control | dose: 200.0 mg/kg/injection, schedule: Q01DX005 (ip), vehicle: Klucel (hydroxypropylcellulose) (HPC) 103 % of control | [3] 97 % of control

Cc1cccc(OC(=O)Nc2cccc(Cl)c2)c1C
inactive: dose: 100.0 mg/kg/injection, schedule: Q01DX001 (ip), vehicle: Klucel (hydroxypropylcellulose) (HPC) 94 % of control | [1] 94 % of control and 100 % of control | [11] 102 % of control and 105 % of control | [2] 101 % of control | dose: 200.0 mg/kg/injection, schedule: Q01DX001 (ip), vehicle: Klucel (hydroxypropylcellulose) (HPC) 92 % of control | [3] 98 % of control and 100 % of control | [12] 96 % of control and 98 % of control | [4] 97 % of control | dose: 400.0 mg/kg/injection, schedule: Q01DX001 (ip), vehicle: Klucel (hydroxypropylcellulose) (HPC) 92 % of control | dose: 400.0 mg/kg/injection, schedule: Q01DX009 (ip), vehicle: Klucel (hydroxypropylcellulose) (HPC) 94 % of control and 96 % of control | [13] 107 % of control and 109 % of control | [5] 93 % of control

O=C1OC(c2ccc([N+](=O)[O-])cc2)Sc2ccccc21 (stereo unspecified)
inactive: [6] 98 % of control | [15] 106 % of control | [7] 94 % of control | [16] 108 % of control | [17] 91 % of control | [18] 97 % of control

Cc1ccc(S(=N)(=O)C2CC2)cc1 (stereo unspecified)
inactive: [19] 95 % of control | [20] 93 % of control | [21] 103 % of control

C=CC[P+](C)(c1ccccc1)c1ccccc1
inactive: dose: 3.13 mg/kg/injection, schedule: Q01DX009 (ip), vehicle: saline 106 % of control

COc1ccc(OC(C)=O)c(C=O)c1
inactive: dose: 100.0 mg/kg/injection, schedule: Q01DX001 (ip), vehicle: carboxymethylcellulose (CMC) 100 % of control | dose: 200.0 mg/kg/injection, schedule: Q01DX001 (ip), vehicle: carboxymethylcellulose (CMC) 103 % of control

CC(C)=CCC/C(C)=C/COC(=O)C(CC=C(C)C)CCN1CCN(CC=C(C)C)CC1 (stereo unspecified)
inactive: [9] 98 % of control | [11] 88 % of control | [10] 92 % of control | [12] 92 % of control | [13] 98 % of control

OCC1OC(n2cnc3c(SSc4ncnc5c4ncn5C4OC(CO)C(O)C4O)ncnc32)C(O)C1O (stereo unspecified)
inactive: [19] 95 % of control | [20] 106 % of control | [21] 121 % of control

CCCCOc1cc(C(=O)O)ccc1[N+](=O)[O-]
inactive: [8] 97 % of control | [22] 96 % of control | [9] 98 % of control | [23] 91 % of control | [24] 102 % of control

CCCc1cc(=O)[nH]c(=S)[nH]1
inactive: [2] 93 % of control | [4] 96 % of control | [5] 101 % of control

Cc1csc(N)c1C(N)=O
inactive: [8] 97 % of control | [22] 97 % of control | [9] 103 % of control | [6] 112 % of control | [23] 92 % of control | [15] 117 % of control | [10] 102 % of control | [7] 100 % of control | [24] 97 % of control | [16] 116 % of control | dose: 400.0 mg/kg/injection, schedule: Q01DX009 (ip), vehicle: saline with Tween-80 103 % of control | [17] 109 % of control | dose: 400.0 mg/kg/injection, schedule: Q04DX003 (ip), vehicle: saline with Tween-80 102 % of control | [18] 115 % of control

Cc1cccc(C(C#N)c2ccc(N)cc2)c1 (stereo unspecified)
inactive: dose: 50.0 mg/kg/injection, schedule: Q01DX001 (ip), vehicle: saline 101 % of control | [19] 101 % of control | [20] 101 % of control

C=CCOCCC(=O)OCC=C
inactive: [14] 95 % of control | [1] 92 % of control | [15] 103 % of control | [16] 103 % of control
